Reference: the supplement of paper PMC10307832

Tests used:
Test in all cases: relative viability (nuclei count vs DMSO), 5 days (fraction); higher = more cells survive
[1] = compound: C1=CC2=NC=CN=C2C=C1/C=C/3\C(=O)NC(=O)S3 + Cc1nc(NC(=O)N2CCC[C@H]2C(N)=O)sc1-c1ccnc(C(C)(C)C(F)(F)F)c1 [Alpelisib] (partner 2 µM)
Method in brief: (§1)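 Lung cancer cell lines in 1536-well plates got either a single drug or a fixed anchor-drug dose together with five library-drug doses (not always all listed) in √10 steps, by pin tool, on the day after seeding. Nuclei were counted after 5 days, and relative viability is the treated-to-vehicle ratio of nuclei counts. Values are medians of duplicate plates.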

[2] = compound: CCN1CCN(c2ccc(Nc3cc(N(C)C(=O)Nc4c(Cl)c(OC)cc(OC)c4Cl)ncn3)cc2)CC1 [BGJ398] + O=C(CCCCCCC(=O)Nc1ccccc1)NO [Vorinostat] (partner 1 µM)
Method in brief: as §1

[3] = compound: C1=CC2=NC=CN=C2C=C1/C=C/3\C(=O)NC(=O)S3 + N=C(N)NC(=N)NCCc1ccccc1 [Phenformin] (partner 250 µM)
Method in brief: as §1

[4] = compound: C1=CC2=NC=CN=C2C=C1/C=C/3\C(=O)NC(=O)S3 + CC(=O)Nc1cccc(-n2c(=O)n(C3CC3)c(=O)c3c(Nc4ccc(I)cc4F)n(C)c(=O)c(C)c32)c1 [Trametinib] (partner 0.02 µM)
Method in brief: as §1

Cell Line	relative viability ([1]; first compound 0.02 µM)	relative viability ([1]; first compound 0.06325 µM)	relative viability ([1]; first compound 0.2 µM)	relative viability ([1]; first compound 0.6325 µM)	relative viability ([1]; first compound 2 µM)	relative viability ([2]; first compound 0.01 µM)	relative viability ([2]; first compound 0.03162 µM)	relative viability ([2]; first compound 0.1 µM)	relative viability ([2]; first compound 0.3162 µM)	relative viability ([2]; first compound 1 µM)	relative viability ([3]; first compound 0.02 µM)	relative viability ([3]; first compound 0.06325 µM)	relative viability ([3]; first compound 0.2 µM)	relative viability ([3]; first compound 0.6325 µM)	relative viability ([3]; first compound 2 µM)	relative viability ([4]; first compound 0.02 µM)	relative viability ([4]; first compound 0.06325 µM)	relative viability ([4]; first compound 0.2 µM)	relative viability ([4]; first compound 0.6325 µM)	relative viability ([4]; first compound 2 µM)
NCI-H2405	0.692	0.92	0.872	0.804	0.703	1.13	1.04	0.919	0.938	1.01	0.44	0.406	0.397	0.383	0.111	0.622	0.765	0.648	0.623	0.399
NCI-H3122	0.737	0.854	0.873	0.766	0.602	0.99	0.991	1.01	0.996	1.2	0.401	0.356	0.379	0.392	0.366	0.246	0.261	0.237	0.191	0.235
PC-3 [JPC-3]	1.07	1.12	0.994	0.987	1.03	1.04	–	0.52	–	0.705	0.478	0.542	0.467	0.487	0.487	0.627	0.772	0.734	0.736	0.646
PC-14	0.959	0.973	0.932	0.894	0.863	0.722	0.121	0.818	–	0.78	0.718	0.719	0.641	0.649	0.452	0.702	1.16	0.835	0.738	0.938
RERF-LC-KJ	0.633	0.816	0.832	0.786	0.788	0.668	0.643	0.765	0.727	0.539	0.399	0.467	0.406	0.392	0.418	0.815	0.878	0.88	0.738	0.62
SK-LU-1	1.01	1.5	1.21	1.05	0.968	0.764	0.773	0.839	0.767	0.774	0.681	0.628	0.552	0.554	0.395	0.506	0.417	0.558	0.542	0.407
SK-MES-1	–	0.987	0.86	0.868	0.802	1.05	1.11	1.03	1.09	0.913	0.623	0.697	0.713	0.626	0.645	0.509	0.564	0.643	0.566	0.503
SW 1573	0.54	0.852	0.791	0.636	0.616	0.742	0.796	0.713	0.854	0.786	0.377	0.443	0.429	0.323	0.287	0.538	0.683	0.57	0.572	0.445
